Literature values, collected in patent publication US10059681B2, “Disubstituted maleic anhydrides with altered kinetics of ring closure” (Arrowhead Madison Inc., priority 2011, dated 2018).

Key:
[1] = Eberson et al. 1971
[2] = Kirby 1980

K=k1/k−1 of equilibrium in water toward ring closure [1]	Compound	kobs of amine release [2]
10^−2	O=C(O)c1ccccc1C(=O)O [phthalic acid]	
5.3	C/C(C(=O)O)=C(\C)C(=O)O [dimethyl maleic acid]	
	CNC(=O)C1=C(C(=O)O)CCCC1	3.5×10^−2
